Tests used:
[1] = tested on: Pharmacologically Induced Prolonged Erection (Pipe); assay: Effect on papaverine- and phenoxybenzamine-induced prolonged erection (PIPE), penile length, baboons; format: in vivo, baboon
Procedure: (§1) Six male baboons weighing between 8 kg and 12 kg were used for the experiment. The animals were sedated with ketamine and anaesthetised with intravenous pentobarbitone injected through an indwelling venous catheter. Drugs were injected into the right corpora cavornosa at the mid-third of the shaft using a 29G needle and 1 ml syringe. Blood pressure was monitored through a cannulated femoral artery connected to the transducer. A measuring tape was used to measure penile length visually from a marked point at the base of the penis to the tip of urethral orifice. Changes in penile length were recorded for a period of 100 min after injection.
Intracavernous injection of papaverine (40 mg) or phenoxybenzamine (3 mg) which produced maximal penile length within 20 and 40 min were repeated one week later and prostaglandin A2 was given at the peak time of the turgidity.
(§2) In baboons, intracavernous injection of papaverine (40 mg) or phenoxybenzamine (3 mg) produced a 130% increase in penile length within […] after administration (Table 1). This increase in penile length lasted for more than 100 min. This was repeated one week later and when prostaglandin A2 was injected intracavernosally at the maximum rigidity 20 min after the drug administration, the latter produced a marked reduction in penile length and within 40 min of injection, the penile size reduced to the original state of rugosity (Table 1). The fall in systemic blood pressure produced by prostaglandin A2 ranged from 8 to 16 mmHg. Each value reported in Table 1 represents the mean of six experiments.

[2] = parameters: species or system baboon; conditions: in vivo
Procedure: as §1, §2

[3] = tested on: prolonged erection induced by 60 mg of papaverine; assay: Effect on papaverine-induced prolonged erection in human patients and volunteers; format: in vivo; conditions: for Mean Decrease in Length of Turgid Penis %: erection induced by 60 mg papaverine
Procedure: In human patients and human volunteers, intracavernous injection of prostaglandin A2 (150 μg) was tested on prolonged erection (lasting more than 4 hours) induced by 60 mg of papaverine.
This was corrected by an additional injection of prostaglandin A2 (100 μg). The fall in mean systemic blood pressure ranged from 7 to 10 mmHg (Table 2).

[4] = tested on: human corpora cavernosa muscle; assay: Contractile response of human corpus cavernosum smooth muscle in vitro; format: cell-based
Text: FIG. 2 is a graphical representation showing contractile response of prostaglandin A2 on human corpus cavernosum smooth muscle.
Prostaglandin A2 is 8.2 times stronger than noradrenaline in contracting human corpora cavernosa muscle in vitro and 500, 2.5 and 50 times stronger than dopamine, adrenaline and aramine, respectively (FIG. 2).

[5] = tested on: cavernous nerve stimulation-induced intracavernous pressure increase; assay: Intracavernous pressure (ICP) response to cavernous nerve stimulation, in vivo rat model; parameters: species or system Sprague Dawley rats; conditions: for Cavernous pressure (mmHg) recording: nerve stimulation
Procedure: The cavernous nerve is a relatively well-defined nerve that exits from the major pelvic ganglion and carries a large component of the autonomic input to the penis. Through electrical stimulation of this nerve, the changes in the peripheral neural mechanisms controlling penile erection can be observed in the animal model. The responses are recorded as concomitant alterations in the ICP following stimulation of this nerve branch.

[6] = rat, in vivo
Procedure: METHOD: Male Sprague Dawley rats (500-700 g) were anaesthetized with sodium pentobarbital (45 mg/kg, intraperitoneal) and the trachea intubated (14G jelco catheter) for respiration. The left external jugular vein and the right common carotid artery were cannulated (PE 50 tubing) for drug infusion and blood pressure monitoring respectively. Through a lower median abdominal incision, the lateral prostate was exposed and the fascia around the cavernous nerve separated through fine dissection. The exposed nerve was suspended on bipolar hook electrode for stimulation. Through transverse perineal incision, a 27G needle was inserted into the penile crus for pressure recording. Systemic and intracavernous pressures were measured by transducers (Ugo Basile) and recorded with MacLab analogue-digital converter (AD instruments). To initiate the experiment, the cavernous nerve was stimulated with square wave pulses of 1 millisecond duration at 20 Hertz and 2 volts with the resting ICP recording.

Question: With `CCCCC[C@H](O)/C=C/[C@H]1C=CC(=O)[C@@H]1C/C=C\CCCC(=O)O` [AS-8, prostaglandin A2] as the molecule, how does the “Mean Change in Penile Length (% of Control)” value (from here on “Mean Change … (% of Control)”) ([1]; papaverine 40 mg followed by AS-8 100 μg 20 min later, 1 min after injection) read?
Answer: 32%

Question: What about the “Mean Change … (% of Control)” value ([1]; papaverine 40 mg followed by AS-8 100 μg 20 min later, 2 min after injection) of the same molecule?
Answer: 38%

Question: And the “Mean Change … (% of Control)” value ([1]; papaverine 40 mg followed by AS-8 100 μg 20 min later, 5 min after injection)?
Answer: 65%

Question: And the “Mean Change … (% of Control)” value ([1]; papaverine 40 mg followed by AS-8 100 μg 20 min later, 10 min after injection)?
Answer: 130%

Question: And the “Mean Change … (% of Control)” value ([1]; papaverine 40 mg followed by AS-8 100 μg 20 min later, 20 min after injection)?
Answer: 142%

Question: And the “Mean Change … (% of Control)” value ([1]; papaverine 40 mg followed by AS-8 100 μg 20 min later, 40 min after injection)?
Answer: 15%

Question: And the “Mean Change … (% of Control)” value ([1]; papaverine 40 mg followed by AS-8 100 μg 20 min later, 60 min after injection)?
Answer: 0%

Question: And the “Mean Change … (% of Control)” value ([1]; papaverine 40 mg followed by AS-8 100 μg 20 min later, 80 min after injection)?
Answer: 0%

Question: What about the “Mean Change … (% of Control)” value ([1]; papaverine 40 mg followed by AS-8 100 μg 20 min later, 100 min after injection) of the same molecule?
Answer: 0%

Question: What about the “Mean Change … (% of Control)” value ([1]; phenoxybenzamine 3 mg followed by AS-8 100 μg 20 min later, 1 min after injection) of the same molecule?
Answer: 7%

Question: And the “Mean Change … (% of Control)” value ([1]; phenoxybenzamine 3 mg followed by AS-8 100 μg 20 min later, 2 min after injection)?
Answer: 15%

Question: And the “Mean Change … (% of Control)” value ([1]; phenoxybenzamine 3 mg followed by AS-8 100 μg 20 min later, 5 min after injection)?
Answer: 20%

Question: What about the “Mean Change … (% of Control)” value ([1]; phenoxybenzamine 3 mg followed by AS-8 100 μg 20 min later, 10 min after injection) of the same molecule?
Answer: 38%

Question: And the “Mean Change … (% of Control)” value ([1]; phenoxybenzamine 3 mg followed by AS-8 100 μg 20 min later, 20 min after injection)?
Answer: 85%

Question: What about the “Mean Change … (% of Control)” value ([1]; phenoxybenzamine 3 mg followed by AS-8 100 μg 20 min later, 40 min after injection) of the same molecule?
Answer: 10%

Question: And the “Mean Change … (% of Control)” value ([1]; phenoxybenzamine 3 mg followed by AS-8 100 μg 20 min later, 60 min after injection)?
Answer: 0%

Question: And the “Mean Change … (% of Control)” value ([1]; phenoxybenzamine 3 mg followed by AS-8 100 μg 20 min later, 80 min after injection)?
Answer: 0%

Question: And the “Mean Change … (% of Control)” value ([1]; phenoxybenzamine 3 mg followed by AS-8 100 μg 20 min later, 100 min after injection)?
Answer: 0%

Question: What about the “time until penile size reduced to the original state of rugosity” value ([1]; prostaglandin A2 intracavernosally at maximum rigidity 20 min after papaverine or phenoxybenzamine) of the same molecule?
Answer: ≤ 40 min

Question: What about the “fall in systemic blood pressure” value [2] of the same molecule?
Answer: 8-16 mmHg

Question: And the “Mean Decrease in Length of Turgid Penis %” value ([3]; Patients (2), 150 μg intracavernous, 1 min after AS-8 injection)?
Answer: 10%

Question: And the “Mean Decrease in Length of Turgid Penis %” value ([3]; Patients (2), 150 μg intracavernous, 5 min after AS-8 injection)?
Answer: 50%

Question: What about the “Mean Decrease in Length of Turgid Penis %” value ([3]; Patients (2), 150 μg intracavernous, 10 min after AS-8 injection) of the same molecule?
Answer: 80%

Question: What about the “Mean Decrease in Length of Turgid Penis %” value ([3]; Patients (2), 150 μg intracavernous, 20 min after AS-8 injection) of the same molecule?
Answer: 90%

Question: And the “Mean Decrease in Length of Turgid Penis %” value ([3]; Patients (2), 150 μg intracavernous, 30 min after AS-8 injection)?
Answer: 100%

Question: And the “Mean Decrease in Length of Turgid Penis %” value ([3]; Volunteers (3), 150 μg intracavernous, 1 min after AS-8 injection)?
Answer: 10%

Question: What about the “Mean Decrease in Length of Turgid Penis %” value ([3]; Volunteers (3), 150 μg intracavernous, 5 min after AS-8 injection) of the same molecule?
Answer: 30%

Question: What about the “Mean Decrease in Length of Turgid Penis %” value ([3]; Volunteers (3), 150 μg intracavernous, 10 min after AS-8 injection) of the same molecule?
Answer: 75%

Question: What about the “Mean Decrease in Length of Turgid Penis %” value ([3]; Volunteers (3), 150 μg intracavernous, 20 min after AS-8 injection) of the same molecule?
Answer: 80%

Question: What about the “Mean Decrease in Length of Turgid Penis %” value ([3]; Volunteers (3), 150 μg intracavernous, 30 min after AS-8 injection) of the same molecule?
Answer: 95%

Question: And the “subjects with maximal reduction in rigidity and penile length to the rugose state within 30 min after injection” value ([3]; patients and volunteers, erection induced by 60 mg papaverine for 4 hours or more, 150 μg intracavernous)?
Answer: four out of five subjects

Question: What about the “relapse of tumescence after first injection” value ([3]; volunteers, first injection 150 μg, corrected by additional injection of 100 μg) of the same molecule?
Answer: In one volunteer, there was a relapse of tumescence within 60 min

Question: And the “times stronger than adrenaline in contracting human corpora cavernosa muscle” value ([4]; versus adrenaline)?
Answer: 2.5 times

Question: What about the “times stronger than aramine in contracting human corpora cavernosa muscle” value ([4]; versus aramine) of the same molecule?
Answer: 50 times

Question: And the “times stronger than dopamine in contracting human corpora cavernosa muscle” value ([4]; versus dopamine)?
Answer: 500 times

Question: What about the “times stronger than noradrenaline in contracting human corpora cavernosa muscle” value ([4]; versus noradrenaline) of the same molecule?
Answer: 8.2 times

Question: What about the “prevention of intracavernous pressure increase to cavernous nerve stimulation” value [5] of the same molecule?
Answer: prevents, in a dose-dependent manner

Question: What about the “cavernous pressure elevations to subsequent nerve stimulations” value ([5]; intracavernous AS-8, all the doses tested, Analysis of Variance) of the same molecule?
Answer: significantly suppressed

Question: And the “Cavernous pressure (mmHg) recording” value ([5]; AS-8 1 μg intracavernous, 2 Min after, Control before 45.76 ± 1.46)?
Answer: 26.48 ± 4.62 mmHg

Question: And the “Cavernous pressure (mmHg) recording” value ([5]; AS-8 1 μg intracavernous, 5 Min after, Control before 45.76 ± 1.46)?
Answer: 22.48 ± 3.21 mmHg

Question: What about the “Cavernous pressure (mmHg) recording” value ([5]; AS-8 1 μg intracavernous, 10 Min after, Control before 45.76 ± 1.46) of the same molecule?
Answer: 26.94 ± 4.77 mmHg

Question: What about the “Cavernous pressure (mmHg) recording” value ([5]; AS-8 1 μg intracavernous, 20 Min after, Control before 45.76 ± 1.46) of the same molecule?
Answer: 24.42 ± 6.87 mmHg

Question: What about the “Cavernous pressure (mmHg) recording” value ([5]; AS-8 1 μg intracavernous, 30 Min after, Control before 45.76 ± 1.46) of the same molecule?
Answer: 22.40 ± 5.34 mmHg

Question: And the “Cavernous pressure (mmHg) recording” value ([5]; AS-8 1 μg intracavernous, 30 Sec after, Control before 45.76 ± 1.46)?
Answer: 33.83 ± 3.09 mmHg

Question: And the “Cavernous pressure (mmHg) recording” value ([5]; AS-8 2 μg intracavernous, 2 Min after, Control before 40.60 ± 2.58)?
Answer: 22.29 ± 9.96 mmHg

Question: What about the “Cavernous pressure (mmHg) recording” value ([5]; AS-8 2 μg intracavernous, 5 Min after, Control before 40.60 ± 2.58) of the same molecule?
Answer: 26.42 ± 4.42 mmHg

Question: What about the “Cavernous pressure (mmHg) recording” value ([5]; AS-8 2 μg intracavernous, 10 Min after, Control before 40.60 ± 2.58) of the same molecule?
Answer: 24.49 ± 7.39 mmHg

Question: What about the “Cavernous pressure (mmHg) recording” value ([5]; AS-8 2 μg intracavernous, 20 Min after, Control before 40.60 ± 2.58) of the same molecule?
Answer: 31.84 ± 5.54 mmHg

Question: And the “Cavernous pressure (mmHg) recording” value ([5]; AS-8 2 μg intracavernous, 30 Min after, Control before 40.60 ± 2.58)?
Answer: 29.62 ± 4.62 mmHg

Question: What about the “Cavernous pressure (mmHg) recording” value ([5]; AS-8 2 μg intracavernous, 30 Sec after, Control before 40.60 ± 2.58) of the same molecule?
Answer: 35.29 ± 3.29 mmHg

Question: What about the “Cavernous pressure (mmHg) recording” value ([5]; AS-8 4 μg intracavernous, 2 Min after, Control before 46.40 ± 1.59) of the same molecule?
Answer: 16.07 ± 1.00 mmHg

Question: What about the “Cavernous pressure (mmHg) recording” value ([5]; AS-8 4 μg intracavernous, 5 Min after, Control before 46.40 ± 1.59) of the same molecule?
Answer: 14.90 ± 1.71 mmHg

Question: What about the “Cavernous pressure (mmHg) recording” value ([5]; AS-8 4 μg intracavernous, 10 Min after, Control before 46.40 ± 1.59) of the same molecule?
Answer: 15.00 ± 6.71 mmHg

Question: And the “Cavernous pressure (mmHg) recording” value ([5]; AS-8 4 μg intracavernous, 20 Min after, Control before 46.40 ± 1.59)?
Answer: 18.30 ± 6.40 mmHg

Question: And the “Cavernous pressure (mmHg) recording” value ([5]; AS-8 4 μg intracavernous, 30 Min after, Control before 46.40 ± 1.59)?
Answer: 17.05 ± 5.86 mmHg

Question: What about the “Cavernous pressure (mmHg) recording” value ([5]; AS-8 4 μg intracavernous, 30 Sec after, Control before 46.40 ± 1.59) of the same molecule?
Answer: 25.91 ± 5.57 mmHg

Question: What about the “mean systemic blood pressure change” value [6] of the same molecule?
Answer: concurrent reduction in mean systemic blood pressure

— patent US6548544B1, “Method of treatment of priapism without raising systemic blood pressure” (The National University of Singapore, priority 1999, dated 2003)
